Converted amounts (≈) assume the structure as drawn. The source made the active and inactive calls. No cut-off for these calls is given here.
Key:
Candida albicans [1] = test: Antifungal activity against Candida albicans assessed as fungal growth inhibition by CLSI protocol based microbroth dilution method; type: functional
Candida albicans [2] = test: Antifungal activity against Candida albicans ATCC 90023 assessed as fungal growth inhibition by CLSI protocol based microbroth dilution method; type: functional
Candida tropicalis [3] = test: Antifungal activity against Candida tropicalis assessed as fungal growth inhibition by CLSI protocol based microbroth dilution method; type: functional
Aspergillus fumigatus = test: Antifungal activity against Aspergillus fumigatus assessed as fungal growth inhibition by CLSI protocol based microbroth dilution method; type: functional
Candida parapsilosis = test: Antifungal activity against Candida parapsilosis ATCC 22019 assessed as fungal growth inhibition by CLSI protocol based microbroth dilution method; type: functional; conditions: Lodderomyces parapsilosis
[4] = Hemolytic activity in human RBC; type: cell-based, Erythrocyte; conditions: human red blood cells (erythrocytes)
[5] = Hemolytic activity in human RBC at MIC relative to control; type: ADME, cell-based, Erythrocyte; conditions: human red blood cells (erythrocytes), read-out: Activity
[6] = Hemolytic activity in human RBC at 8 times MIC relative to control; type: ADME, cell-based, Erythrocyte; conditions: human red blood cells (erythrocytes), read-out: Activity
L02 [7] = test: Cytotoxicity against human L02 cells assessed as increase in cell viability measured after 72 hrs by CCK8 assay relative to control; type: cell-based; conditions: l02, 72 h
L02 [8] = test: Cytotoxicity against human L02 cells at 100 ug/ml measured after 72 hrs by CCK8 assay; type: cell-based; conditions: l02, 72 h, dose 100 µg/ml
Candida albicans [9] = test: Antifungal activity against Candida albicans measured after 16 passages; type: functional, organism-based
Candida tropicalis [10] = test: Potentiation of fluconazole-induced antifungal activity against Candida tropicalis assessed as fluconazole MIC (reference value: […] ug/ml); type: functional
Candida albicans [11] = test: Synergistic antifungal activity against Candida albicans assessed as fractional inhibitory concentration index in presence of fluconazole; type: functional
Candida albicans [12] = test: Potentiation of fluconazole-induced antifungal activity against Candida albicans assessed as fluconazole MIC (reference value: […] ug/ml); type: functional
Candida tropicalis [13] = test: Additive antifungal activity against Candida tropicalis assessed as fractional inhibitory concentration index in presence of fluconazole; type: functional
Candida albicans [14] = test: Antibiofilm activity against Candida albicans assessed as inhibition of biofilm formation at 0.5 to 5 times MIC by Alamar blue assay; type: functional, organism-based
Cell membrane [15] = test: Induction of cell membrane permeabilization in Candida albicans up to 6 times MIC by propidium iodide staining based fluorescence assay; type: subcellular
Cell wall [16] = test: Induction of cell wall damage in Candida albicans; type: subcellular
Cell wall [17] = test: Induction of cell wall damage in Candida tropicalis; type: subcellular
Cell wall [18] = test: Induction of cell wall damage in Aspergillus fumigatus; type: subcellular
Cell membrane [19] = test: Induction of cytoplasmic membrane depolarization in Candida albicans by diSC3(5)-dye based assay; type: subcellular
Cell membrane [20] = test: Induction of cell membrane disruption in Candida albicans assessed as increase in protein leakage by Bradford assay; type: subcellular
Cell membrane [21] = test: Induction of cell membrane destruction in Candida albicans assessed as reduction in LDH activity at MIC relative to control; type: subcellular; design: scale not given: the % may be the effect or the level left
Cell membrane [22] = test: Induction of cell membrane destruction in Candida albicans assessed as reduction in LDH activity at 4 times MIC relative to control; type: subcellular; design: scale not given: the % may be the effect or the level left
Candida albicans [23] = test: Antifungal activity against Candida albicans assessed as reduction in metabolic activity at 0.5 to 6 times MIC by resazurin assay; type: functional, organism-based
Candida albicans [24] = test: Induction of oxidative stress in Candida albicans assessed as increase in ROS generation by […] probe based assay; type: functional, organism-based
Candida albicans [25] = test: Induction of reactive nitrogen species generation in Candida albicans assessed as increase in NO level at 6 times MIC by Greiss reagent assay relative to control; type: functional
Candida albicans [26] = test: Induction of oxidative stress in Candida albicans assessed as decrease in cellular GSH level; type: functional, organism-based
Candida albicans [27] = test: Antifungal activity against Candida albicans measured after 8 passages; type: functional, organism-based

SMILES: O=C(Cn1cnc2c(N3CCN(CC(=O)N4CCCC4)CC3)ncnc21)c1nccs1
- MIC (Candida albicans [1]): 2 µg/mL (≈ 4.54 µM)
- MIC (Candida albicans [2]): 256 µg/mL (≈ 581 µM)
- MIC (Candida tropicalis [3]): 32 µg/mL (≈ 72.6 µM)
- MIC (Aspergillus fumigatus): 64 µg/mL (≈ 145 µM)
- MIC (Candida parapsilosis): 128 µg/mL (≈ 291 µM)
- HC50 [4]: > 256 µg/mL

SMILES: N#CCN1CCN(c2ncnc3c2ncn3CC(=O)c2nccs2)CC1
- MIC (Candida albicans [1]): 8 µg/mL (≈ 21.7 µM)
- MIC (Candida albicans [2]): 256 µg/mL (≈ 695 µM)
- MIC (Candida tropicalis [3]): 4 µg/mL (≈ 10.9 µM)
- MIC (Aspergillus fumigatus): 16 µg/mL (≈ 43.4 µM)
- MIC (Candida parapsilosis): 8 µg/mL (≈ 21.7 µM)
- HC50 [4]: > 256 µg/mL

SMILES: O=C(Cn1cnc2c(N3CCCC3)ncnc21)c1nccs1
- MIC (Candida albicans [1]): 16 µg/mL (≈ 50.9 µM)
- MIC (Candida albicans [2]): 32 µg/mL (≈ 102 µM)
- MIC (Candida tropicalis [3]): 64 µg/mL (≈ 204 µM)
- MIC (Aspergillus fumigatus): 32 µg/mL (≈ 102 µM)
- MIC (Candida parapsilosis): 32 µg/mL (≈ 102 µM)
- HC50 [4]: > 256 µg/mL

SMILES: C#CCN1CCN(c2ncnc3c2ncn3CC(=O)c2nccs2)CC1
- MIC (Candida albicans [1]): 256 µg/mL (≈ 697 µM)
- MIC (Candida albicans [2]): 16 µg/mL (≈ 43.5 µM)
- MIC (Candida tropicalis [3]): 256 µg/mL (≈ 697 µM)
- MIC (Aspergillus fumigatus): 32 µg/mL (≈ 87.1 µM)
- MIC (Candida parapsilosis): 256 µg/mL (≈ 697 µM)
- HC50 [4]: > 256 µg/mL

SMILES: C=CCN1CCN(c2ncnc3c2ncn3CC(=O)c2nccs2)CC1
- MIC (Candida albicans [1]): 4 µg/mL (≈ 10.8 µM)
- MIC (Candida albicans [2]): 64 µg/mL (≈ 173 µM)
- MIC (Candida tropicalis [3]): 32 µg/mL (≈ 86.6 µM)
- MIC (Aspergillus fumigatus): 64 µg/mL (≈ 173 µM)
- MIC (Candida parapsilosis): 8 µg/mL (≈ 21.7 µM)
- HC50 [4]: > 256 µg/mL

SMILES: O=C(Cn1cnc2c(N3CCCCC3)ncnc21)c1nccs1
- MIC (Candida albicans [1]): 1 µg/mL (≈ 3.05 µM)
- MIC (Candida albicans [2]): 256 µg/mL (≈ 780 µM)
- MIC (Candida tropicalis [3]): 64 µg/mL (≈ 195 µM)
- MIC (Aspergillus fumigatus): 128 µg/mL (≈ 390 µM)
- MIC (Candida parapsilosis): 64 µg/mL (≈ 195 µM)
- HC50 [4]: > 256 µg/mL

SMILES: CCO/N=C(/Cn1cnc2c(N3CCN(CC(=O)OCC)CC3)ncnc21)c1nccs1
- MIC (Candida albicans [1]): 64 µg/mL (≈ 140 µM)
- MIC (Candida albicans [2]): 64 µg/mL (≈ 140 µM)
- MIC (Candida tropicalis [3]): 128 µg/mL (≈ 279 µM)
- MIC (Aspergillus fumigatus): 128 µg/mL (≈ 279 µM)
- MIC (Candida parapsilosis): 128 µg/mL (≈ 279 µM)
- HC50 [4]: > 256 µg/mL

SMILES: CCCCCCCCCCCCCCCCCCN1CCN(c2ncnc3c2ncn3CC(=O)c2nccs2)CC1
- MIC (Candida albicans [1]): 2 µg/mL (≈ 3.44 µM)
- MIC (Candida albicans [2]): 256 µg/mL (≈ 440 µM)
- MIC (Candida tropicalis [3]): 64 µg/mL (≈ 110 µM)
- MIC (Aspergillus fumigatus): 32 µg/mL (≈ 55 µM)
- MIC (Candida parapsilosis): 128 µg/mL (≈ 220 µM)
- HC50 [4]: > 256 µg/mL

SMILES: O=C(Cn1cnc2c(N3CCN(Cc4ccc(F)cc4)CC3)ncnc21)c1nccs1
- MIC (Candida albicans [1]): 32 µg/mL (≈ 73.1 µM)
- MIC (Candida albicans [2]): 256 µg/mL (≈ 585 µM)
- MIC (Candida tropicalis [3]): 64 µg/mL (≈ 146 µM)
- MIC (Aspergillus fumigatus): 32 µg/mL (≈ 73.1 µM)
- MIC (Candida parapsilosis): 256 µg/mL (≈ 585 µM)
- HC50 [4]: > 256 µg/mL

SMILES: O=C(Cn1cnc2c(N3CCOCC3)ncnc21)c1nccs1
- MIC (Candida albicans [1]): 64 µg/mL (≈ 194 µM)
- MIC (Candida albicans [2]): 2 µg/mL (≈ 6.05 µM)
- MIC (Candida tropicalis [3]): 32 µg/mL (≈ 96.9 µM)
- MIC (Aspergillus fumigatus): 64 µg/mL (≈ 194 µM)
- MIC (Candida parapsilosis): 2 µg/mL (≈ 6.05 µM)
- HC50 [4]: > 256 µg/mL

SMILES: CCCCCCN1CCN(c2ncnc3c2ncn3CC(=O)c2nccs2)CC1
- MIC (Candida albicans [1]): 4 µg/mL (≈ 9.67 µM)
- MIC (Candida albicans [2]): 16 µg/mL (≈ 38.7 µM)
- MIC (Candida tropicalis [3]): 32 µg/mL (≈ 77.4 µM)
- MIC (Aspergillus fumigatus): 128 µg/mL (≈ 310 µM)
- MIC (Candida parapsilosis): 4 µg/mL (≈ 9.67 µM)
- HC50 [4]: > 256 µg/mL

SMILES: CCOC(=O)CN1CCN(c2ncnc3c2ncn3CC(O)c2nccs2)CC1 (stereo not given)
- MIC (Candida albicans [1]): 128 µg/mL (≈ 307 µM)
- MIC (Candida albicans [2]): 64 µg/mL (≈ 153 µM)
- MIC (Candida tropicalis [3]): 64 µg/mL (≈ 153 µM)
- MIC (Aspergillus fumigatus): 32 µg/mL (≈ 76.6 µM)
- MIC (Candida parapsilosis): 128 µg/mL (≈ 307 µM)
- HC50 [4]: > 256 µg/mL

SMILES: CCCCCCCCCCCCN1CCN(c2ncnc3c2ncn3CC(=O)c2nccs2)CC1
- MIC (Candida albicans [1]): 4 µg/mL (≈ 8.04 µM)
- MIC (Candida albicans [2]): 16 µg/mL (≈ 32.1 µM)
- MIC (Candida tropicalis [3]): 8 µg/mL (≈ 16.1 µM)
- MIC (Aspergillus fumigatus): 16 µg/mL (≈ 32.1 µM)
- MIC (Candida parapsilosis): 8 µg/mL (≈ 16.1 µM)
- HC50 [4]: > 256 µg/mL

SMILES: CCOC(=O)CN1CCN(c2ncnc3c2ncn3CC(=O)c2nccs2)CC1
- MIC (Candida albicans [1]): 1 µg/mL (≈ 2.41 µM)
- MIC (Candida albicans [2]): 16 µg/mL (≈ 38.5 µM)
- MIC (Candida tropicalis [3]): 8 µg/mL (≈ 19.3 µM)
- MIC (Aspergillus fumigatus): 16 µg/mL (≈ 38.5 µM)
- MIC (Candida parapsilosis): 8 µg/mL (≈ 19.3 µM)
- HC50 [4]: > 256 µg/mL
- hemolysis at 1 x MIC [5]: 2.6%
- hemolysis at 8 x MIC [6]: 3.8%
- Activity (L02 [7]): > 60%
- Activity (L02 [8]): Toxic
- Activity (Candida albicans [9]): Active
- MIC (Candida tropicalis [10]): 8 µg/mL
- fractional inhibitory concentration index (FICI) (Candida albicans [11]): 0.56
- MIC (Candida albicans [12]): 0.0625 µg/mL
- fractional inhibitory concentration index (FICI) (Candida tropicalis [13]): 1.02
- inhibition (Candida albicans [14]): Active
- Activity (Cell membrane [15]): Active
- Activity (Cell wall [16]): Active
- Activity (Cell wall [17]): Active
- Activity (Cell wall [18]): inactive
- Activity (Cell membrane [19]): Active
- Activity (Cell membrane [20]): Dose-Dependent Effect
- Activity (Cell membrane [21]): 30%
- Activity (Cell membrane [22]): 50%
- Activity (Candida albicans [23]): Active
- Activity (Candida albicans [24]): Dose-Dependent Effect
- fold change (FC) (Candida albicans [25]): 3.6
- Activity (Candida albicans [26]): Active

SMILES: CC(C)N(C(=O)CN1CCN(c2ncnc3c2ncn3CC(=O)c2nccs2)CC1)C(C)C
- MIC (Candida albicans [1]): 4 µg/mL (≈ 8.5 µM)
- MIC (Candida albicans [2]): 16 µg/mL (≈ 34 µM)
- MIC (Candida tropicalis [3]): 8 µg/mL (≈ 17 µM)
- MIC (Aspergillus fumigatus): 32 µg/mL (≈ 68 µM)
- MIC (Candida parapsilosis): 32 µg/mL (≈ 68 µM)
- HC50 [4]: > 256 µg/mL

SMILES: OC(Cn1cncn1)(Cn1cncn1)c1ccc(F)cc1F [FLUCONAZOLE]
- MIC (Candida albicans [1]): 4 µg/mL (≈ 13.1 µM)
- MIC (Candida albicans [2]): 2 µg/mL (≈ 6.53 µM)
- MIC (Candida tropicalis [3]): 8 µg/mL (≈ 26.1 µM)
- MIC (Aspergillus fumigatus): 256 µg/mL (≈ 836 µM)
- MIC (Candida parapsilosis): 4 µg/mL (≈ 13.1 µM)
- HC50 [4]: > 256 µg/mL
- Activity (Candida albicans [27]): Active

SMILES: O=C(Cn1cnc2c(N3CCNCC3)ncnc21)c1nccs1
- MIC (Candida albicans [1]): 64 µg/mL (≈ 194 µM)
- MIC (Candida albicans [2]): 32 µg/mL (≈ 97.1 µM)
- MIC (Candida tropicalis [3]): 32 µg/mL (≈ 97.1 µM)
- MIC (Aspergillus fumigatus): 64 µg/mL (≈ 194 µM)
- MIC (Candida parapsilosis): 256 µg/mL (≈ 777 µM)
- HC50 [4]: > 256 µg/mL

From ChEMBL document CHEMBL4825682, “Discovery of novel purinylthiazolylethanone derivatives as anti-Candida albicans agents through possible multifaceted mechanisms” (Eur J Med Chem, 2021)
